Measurements as given in patent publication US20190116791A1, “USE OF SAFENERS WITH PPO INHIBITOR HERBICIDES” (priority 2016, published 2019).
Where “and” joins values, the source holds several entries; their conditions need not be identical. Equal values may be shown once.

Experiments:
Morningglory = experiment: Percent weed control, 0 to 100% rating system; format: in vivo; conditions: Table 6
Protocol: (§1) Percent weed control was determined by a method similar to the 0 to 100% rating system as described above and reproduced below for easy reference. The same weed control rating system also can be found such as in “Research Methods in Weed Science,” 2nd ed., B. Truelove, Ed.; Southern Weed Science Society; Auburn University, Auburn, Ala., 1977.

Velvetleaf = experiment: Percent weed control, 0 to 100% rating system; format: in vivo; conditions: Table 6
Protocol: as §1

[1] = tested on: wheat specie “Yellowstone”; experiment: Percent wheat injury, visual rating 0-100%, greenhouse, post-emergence spray; conditions: for Percent wheat injury 3 DAT / Percent wheat injury 7 DAT / Percent wheat injury 14 DAT / Injury: Yellowstone; for Injury / Percent injury on wheat, Yellowstone 3 DAT / Percent injury on wheat, Yellowstone 7 DAT / Percent injury on wheat, Yellowstone 14 DAT: Table 4; for Injury: time not stated; for Percent wheat injury, YELLOWSTONE (1) 3 DAT / Percent wheat injury, YELLOWSTONE (1) 7 DAT / Percent wheat injury, YELLOWSTONE (1) 14 DAT: Table 7 Test 1; for Percent wheat injury, YELLOWSTONE (1) 3 DAT / Percent wheat injury, YELLOWSTONE (1) 7 DAT / Percent wheat injury, YELLOWSTONE (1) 14 DAT / Percent wheat injury, YELLOWSTONE (2) 3 DAT / Percent wheat injury, YELLOWSTONE (2) 7 DAT / Percent wheat injury, YELLOWSTONE (2) 14 DAT: tank-mix; for Percent wheat injury, YELLOWSTONE (2) 3 DAT / Percent wheat injury, YELLOWSTONE (2) 7 DAT / Percent wheat injury, YELLOWSTONE (2) 14 DAT: Table 7 Test 2
wheat variety “Jagger” = experiment: as above; conditions: for Injury / Percent injury on wheat, Jagger 3 DAT / Percent injury on wheat, Jagger 7 DAT / Percent injury on wheat, Jagger 14 DAT: Table 4; for Injury: Jagger, time not stated; for Percent wheat injury, JAGGER 3 DAT / Percent wheat injury, JAGGER 7 DAT / Percent wheat injury, JAGGER 14 DAT: Table 7 Test 1, tank-mix
[2] = Table 2, carfentrazone-ethyl 25 g ai/ha
[3] = Table 3, carfentrazone-ethyl 50 g ai/ha
[4] = carfentrazone-ethyl at 50 g, safened treatment as tank-mix or premix
[5] = fluthiacet-methyl 5.6 g ai/ha, 3 DAT
[6] = fluthiacet-methyl 11.2 g ai/ha, 3 DAT

CCOC(=O)C(Cl)Cc1cc(-n2nc(C)n(C(F)F)c2=O)c(F)cc1Cl (centres unmarked) [Carfentrazone-ethyl, carfentrazone-ethyl]
Percent weed control, Morningglory 3 DAT (Morningglory; carfentrazone-ethyl 25 g ai/ha): 90 (A) % | Percent weed control, Morningglory 7 DAT (Morningglory; carfentrazone-ethyl 25 g ai/ha): 100 (A) % | Percent weed control, Morningglory 3 DAT (Morningglory; carfentrazone-ethyl 50 g ai/ha): 90 (A) % | Percent weed control, Morningglory 7 DAT (Morningglory; carfentrazone-ethyl 50 g ai/ha): 100 (A) % | Percent weed control, Velvetleaf 3 DAT (Velvetleaf; carfentrazone-ethyl 25 g ai/ha): 90 (A) % | Percent weed control, Velvetleaf 7 DAT (Velvetleaf; carfentrazone-ethyl 25 g ai/ha): 100% | Percent weed control, Velvetleaf 3 DAT (Velvetleaf; carfentrazone-ethyl 50 g ai/ha): 90 (A) % | Percent weed control, Velvetleaf 7 DAT (Velvetleaf; carfentrazone-ethyl 50 g ai/ha): 100% | Percent wheat injury 3 DAT ([1]; Table 2, carfentrazone-ethyl 25 g ai/ha, 3 DAT): 34% and 34 (A) % | Percent wheat injury 3 DAT ([1]; Table 2, carfentrazone-ethyl 25 g ai/ha, 3 DAT, listed as carfentrazone-ethyl): 34% | Percent wheat injury 7 DAT [1, 2]: 28 (A) % | Percent wheat injury 14 DAT [1, 2]: 15 (A) % | Percent wheat injury 3 DAT ([1]; Table 3, carfentrazone-ethyl 50 g ai/ha, 3 DAT): 43% and 43 (A) % | Percent wheat injury 7 DAT [1, 3]: 36 (A) % | Percent wheat injury 14 DAT [1, 3]: 20 (A) % | Injury ([1]; carfentrazone-ethyl at 25 g): > 35% | Injury [1, 4]: > 40% | Percent injury on wheat, Yellowstone 3 DAT ([1]; carfentrazone-ethyl 25 g ai/ha, 3 DAT): 38% | Percent injury on wheat, Yellowstone 7 DAT ([1]; carfentrazone-ethyl 25 g ai/ha): 34% | Percent injury on wheat, Yellowstone 14 DAT ([1]; carfentrazone-ethyl 25 g ai/ha): 24% | Percent injury on wheat, Yellowstone 3 DAT ([1]; carfentrazone-ethyl 50 g ai/ha, 3 DAT): 44% | Percent injury on wheat, Yellowstone 7 DAT ([1]; carfentrazone-ethyl 50 g ai/ha): 39% | Percent injury on wheat, Yellowstone 14 DAT ([1]; carfentrazone-ethyl 50 g ai/ha): 28% | Injury (wheat variety “Jagger”; carfentrazone-ethyl at 25 g): > 35% | Injury (wheat variety “Jagger”; [4]): > 40% | Percent injury on wheat, Jagger 3 DAT (wheat variety “Jagger”; carfentrazone-ethyl 25 g ai/ha): 36% | Percent injury on wheat, Jagger 7 DAT (wheat variety “Jagger”; carfentrazone-ethyl 25 g ai/ha): 34% | Percent injury on wheat, Jagger 14 DAT (wheat variety “Jagger”; carfentrazone-ethyl 25 g ai/ha): 25% | Percent injury on wheat, Jagger 3 DAT (wheat variety “Jagger”; carfentrazone-ethyl 50 g ai/ha): 43% | Percent injury on wheat, Jagger 7 DAT (wheat variety “Jagger”; carfentrazone-ethyl 50 g ai/ha): 38% | Percent injury on wheat, Jagger 14 DAT (wheat variety “Jagger”; carfentrazone-ethyl 50 g ai/ha): 30%

COC(=O)CSc1cc(/N=c2\sc(=O)n3n2CCCC3)c(F)cc1Cl [F-M, fluthiacet-methyl]
Percent wheat injury, YELLOWSTONE (1) 3 DAT [1, 5]: 12% | Percent wheat injury, YELLOWSTONE (1) 7 DAT ([1]; fluthiacet-methyl 5.6 g ai/ha): 12% | Percent wheat injury, YELLOWSTONE (1) 14 DAT ([1]; fluthiacet-methyl 5.6 g ai/ha): 12% | Percent wheat injury, YELLOWSTONE (1) 3 DAT [1, 6]: 36% | Percent wheat injury, YELLOWSTONE (1) 7 DAT ([1]; fluthiacet-methyl 11.2 g ai/ha): 34% | Percent wheat injury, YELLOWSTONE (1) 14 DAT ([1]; fluthiacet-methyl 11.2 g ai/ha): 34% | Percent wheat injury, YELLOWSTONE (2) 3 DAT [1, 5]: 16% | Percent wheat injury, YELLOWSTONE (2) 7 DAT ([1]; fluthiacet-methyl 5.6 g ai/ha): 11% | Percent wheat injury, YELLOWSTONE (2) 14 DAT ([1]; fluthiacet-methyl 5.6 g ai/ha): 12% | Percent wheat injury, YELLOWSTONE (2) 3 DAT [1, 6]: 40% | Percent wheat injury, YELLOWSTONE (2) 7 DAT ([1]; fluthiacet-methyl 11.2 g ai/ha): 36% | Percent wheat injury, YELLOWSTONE (2) 14 DAT ([1]; fluthiacet-methyl 11.2 g ai/ha): 25% | Percent wheat injury, JAGGER 3 DAT (wheat variety “Jagger”; fluthiacet-methyl 5.6 g ai/ha): 6% | Percent wheat injury, JAGGER 7 DAT (wheat variety “Jagger”; fluthiacet-methyl 5.6 g ai/ha): 8% | Percent wheat injury, JAGGER 14 DAT (wheat variety “Jagger”; fluthiacet-methyl 5.6 g ai/ha): 10% | Percent wheat injury, JAGGER 3 DAT (wheat variety “Jagger”; fluthiacet-methyl 11.2 g ai/ha): 35% | Percent wheat injury, JAGGER 7 DAT (wheat variety “Jagger”; fluthiacet-methyl 11.2 g ai/ha): 35% | Percent wheat injury, JAGGER 14 DAT (wheat variety “Jagger”; fluthiacet-methyl 11.2 g ai/ha): 19%

O=C1OC(=O)c2cccc3cccc1c23 [naphthalic anhydride]
wheat injury in the presence of safener(s) ([1]; text on Tables 2 and 3, safener applied with carfentrazone-ethyl, regardless of rate (25 or 50 g), 3 DAT): greater than 25%
